Measured values as given in PubChem BioAssay (NCI).
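The compound was tested at five concentrations on cells cultured in 96-well plates, with a 48-hour exposure period. GI50 marks 50% less growth. TGI marks complete inhibition of growth.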

Tests used:
Experiment in all cases: NCI tumour cell line growth inhibition, 48 h
[1] = system: HCT-15 colon
[2] = system: SN12C renal
[3] = system: SK-OV-3 ovarian
[4] = system: SK-MEL-5 melanoma
[5] = system: NCI-H23 lung
[6] = system: SK-MEL-28 melanoma
[7] = system: A498 renal
[8] = system: COLO 205 colon
[9] = system: NCI/ADR-RES ovarian
[10] = system: MALME-3M melanoma
[11] = system: OVCAR-5 ovarian
[12] = system: DU-145 prostate
[13] = system: MCF7 breast
[14] = system: SF-539 CNS
[15] = system: OVCAR-8 ovarian
[16] = system: HOP-62 NSCLC
[17] = system: BT-549 breast
[18] = system: TK-10 renal
[19] = system: T-47D breast
[20] = system: SF-268 CNS
[21] = system: IGROV1 ovarian
[22] = system: UACC-62 melanoma
[23] = system: U251 CNS
[24] = system: HS 578T breast
[25] = system: HCT-116 colon
[26] = system: SR leukemia
[27] = system: OVCAR-3 ovarian
[28] = system: HT29 colon
[29] = system: SW-620 colon
[30] = system: MDA-MB-231 breast
[31] = system: ACHN renal
[32] = system: MDA-MB-435
[33] = system: SNB-19 CNS
[34] = system: M14 melanoma
[35] = system: CAKI-1 renal
[36] = system: MOLT-4 leukemia
[37] = system: UACC-257 melanoma
[38] = system: NCI-H226 lung
[39] = system: NCI-H522 lung
[40] = system: CCRF-CEM leukemia
[41] = system: SK-MEL-2 melanoma
[42] = system: A549 NSCLC
[43] = system: 786-0 renal
[44] = system: SNB-75 CNS
[45] = system: NCI-H460 lung
[46] = system: LOX IMVI melanoma
[47] = system: K-562 leukemia
[48] = system: KM12 colon
[49] = system: HL-60(TB) leukemia
[50] = system: MDA-MB-468 breast
[51] = system: UO-31 renal
[52] = system: HOP-92 NSCLC
[53] = system: OVCAR-4 ovarian
[54] = system: HCC-2998 colon
[55] = system: PC-3 prostate
[56] = system: EKVX NSCLC
[57] = system: RPMI-8226 leukemia
[58] = system: RXF 393 renal

For `O=C(CSc1nnc(-c2ccc(-c3nc4ccc(Cl)cc4[nH]3)cc2)o1)Nc1ccccc1`, the GI50 [1] was 8.35 µM, the TGI [1] was over 100 µM and the GI50 [2] was 3.26 µM. It also gave a TGI [2] of 13.8 µM, a GI50 [3] of 3.97 µM and a TGI [3] of 14.9 µM. The GI50 [4] was 3.72 µM, the TGI [4] was 14.5 µM and the GI50 [5] was 3.04 µM. It also gave a TGI [5] of 10.1 µM, a GI50 [6] of 2.52 µM and a TGI [6] of 7.01 µM. It also gave a GI50 [7] of 15.2 µM, a TGI [7] of 28.5 µM and a GI50 [8] of 14.9 µM. It also gave a TGI [8] of 41.9 µM, a GI50 [9] of 9.04 µM and a TGI [9] of 43.5 µM. For the same compound, the GI50 [10] was 1.99 µM, the TGI [10] was 5.34 µM and the GI50 [11] was 7.42 µM. For the same compound, the TGI [11] was 27.2 µM, the GI50 [12] was 2.44 µM and the TGI [12] was 5.48 µM. The GI50 [13] was 7.37 µM, the TGI [13] was over 100 µM and the GI50 [14] was 2.24 µM. The TGI [14] was 5.74 µM, the GI50 [15] was 3.88 µM and the TGI [15] was 18 µM. It also gave a GI50 [16] of 2.18 µM, a TGI [16] of 5.54 µM and a GI50 [17] of 2.98 µM. For the same compound, the TGI [17] was 17 µM, the GI50 [18] was 20.9 µM and the TGI [18] was 39 µM. The GI50 [19] was 17.1 µM, the TGI [19] was 41.4 µM and the GI50 [20] was 2.44 µM. For the same compound, the TGI [20] was 6.71 µM, the GI50 [21] was 13.5 µM and the TGI [21] was 28.5 µM. It also gave a GI50 [22] of 6.71 µM, a TGI [22] of 19.5 µM and a GI50 [23] of 4.54 µM. It also gave a TGI [23] of 17.9 µM, a GI50 [24] of 2.92 µM and a TGI [24] of 13.9 µM. For the same compound, the GI50 [25] was 3.95 µM, the TGI [25] was 41.1 µM and the GI50 [26] was 16.3 µM. For the same compound, the TGI [26] was over 100 µM, the GI50 [27] was 3.3 µM and the TGI [27] was 11.3 µM. For the same compound, the GI50 [28] was 4.5 µM, the TGI [28] was 53.6 µM and the GI50 [29] was 3.54 µM. For the same compound, the TGI [29] was 15.9 µM, the GI50 [30] was 3.26 µM and the TGI [30] was 11.9 µM. For the same compound, the GI50 [31] was 2.64 µM, the TGI [31] was 11 µM and the GI50 [32] was 2.17 µM. It also gave a TGI [32] of 7.11 µM, a GI50 [33] of 3.26 µM and a TGI [33] of 12.2 µM. For the same compound, the GI50 [34] was 3.39 µM, the TGI [34] was 14.1 µM and the GI50 [35] was 1.9 µM. For the same compound, the TGI [35] was 3.89 µM, the GI50 [36] was 8.63 µM and the TGI [36] was over 100 µM. It also gave a GI50 [37] of 5.91 µM, a TGI [37] of 21.8 µM and a GI50 [38] of 1.87 µM. The TGI [38] was 5.28 µM, the GI50 [39] was 2.74 µM and the TGI [39] was 10.6 µM. The GI50 [40] was 7.3 µM, the TGI [40] was 68.8 µM and the GI50 [41] was 14.9 µM. For the same compound, the TGI [41] was 30.5 µM, the GI50 [42] was 2.57 µM and the TGI [42] was 11.3 µM. For the same compound, the GI50 [43] was 1.52 µM, the TGI [43] was 3.44 µM and the GI50 [44] was 1.65 µM. It also gave a TGI [44] of 4.8 µM, a GI50 [45] of 0.9 µM and a TGI [45] of 2.97 µM. For the same compound, the GI50 [46] was 1.83 µM, the TGI [46] was 4.48 µM and the GI50 [47] was 3.58 µM. It also gave a TGI [47] of over 100 µM, a GI50 [48] of 8.4 µM and a TGI [48] of 27.4 µM. For the same compound, the GI50 [49] was 16.4 µM, the TGI [49] was over 100 µM and the GI50 [50] was 15.6 µM. The TGI [50] was 30 µM, the GI50 [51] was 10.8 µM and the TGI [51] was 22.9 µM. The GI50 [52] was 2.33 µM, the TGI [52] was 8.78 µM and the GI50 [53] was 3.02 µM. For the same compound, the TGI [53] was 11 µM, the GI50 [54] was 32.8 µM and the TGI [54] was over 100 µM. The GI50 [55] was 1.82 µM, the TGI [55] was 5.04 µM and the GI50 [56] was 4.86 µM. The TGI [56] was 25.6 µM, the GI50 [57] was 15.5 µM and the TGI [57] was over 100 µM. It also gave a GI50 [58] of 2.38 µM and a TGI [58] of 6.52 µM.
